Experimental data taken from publication PMC4741889, “Ligand-based chemoinformatic discovery of a novel small molecule inhibitor targeting CDC25 dual specificity phosphatases and displaying in vitro efficacy against melanoma cells” (Oncotarget, 2015).

Experiments:
Type in all cases: cell-based, human
[1] = test system: A2058 cells; assay: Intracellular ROS level (DCFH-DA), A2058 cells
Description: The high redox reactivity of quinonoid molecules, like compound 7, could greatly perturb the intracellular redox state. […] The oxidant effect of 7 was also evaluated after cell pre-treatment with two antioxidant molecules, such as N-acetyl-cysteine (NAC) and the specific inhibitor of NADPH oxidase, apocynin. To this aim, A2058 and SAN cells were pre-incubated for 1 h with 10 mM NAC or 45 min with 0.5 mM apocynin and then treated for 4 h with 100 μM compound 7. […] The cytotoxic activity of 7 could be mediated by the observed increase of ROS level.
The intracellular ROS level was monitored using the oxidation-sensitive fluorescence probe DCFH-DA. Cells were seeded into 6-well-plates (3 × 10^5 cells/plate) for 24 h at 37°C and then treated at various times with 100 μM compound 7 or 0.5% DMSO. DCFH-DA was added in the dark at 10 μM final concentration 30-min before the end of each incubation; then, cells were collected, washed in PBS, and finally resuspended in 500 μL PBS for fluorimetric analysis. Measurements were realized in a Cary Eclipse fluorescence spectrophotometer (Varian); excitation and emission wavelengths were set at 485 nm and 530 nm, respectively; both excitation and emission slits were set at 10 nm. The effect of 7 on ROS production was also estimated after pretreatment of cells with 10 mM NAC for 1 h.

[2] = test system: A2058 cells; assay: MTT cell growth rate, A2058 melanoma cells; settings: for cell growth rate: A2058, 100 μM
Description: The human melanoma cell line A2058, kindly provided by CEINGE (Naples, Italy), and SAN cells were derived from lymph nodal metastases and grown in DMEM and RPMI 1640, respectively, supplemented with 10% FBS, 2 mM L-glutamine, 100 IU/mL penicillin G, and 100 μg/mL streptomycin in humidified incubator at 37°C under 5% CO2 atmosphere. All cells were split and seeded every three days and used during the exponential phase of growth. Cell treatments were always carried after 24 h from plating.
The MTT assay was used to detect cell proliferation essentially as previously described. Briefly, A2058 and SAN cells were plated in 96-well microtiter plates (100 μL/well) at 4000 and 6000 cells/well, respectively. After 24-h seeding, cells were treated with the selected compounds added at 25, 50 or 100 μM concentration, or with 0.5% (v/v) DMSO as a vehicle control. After 24-h, 48-h or 72-h treatment, and upon the addition of 10 μL of MTT solution in the dark, the plate was incubated for 3 h at 37°C under CO2 atmosphere. After medium aspiration and solubilization of formazan crystals, absorbance was measured at 570 nm, using an ELISA plate reader (Bio-Rad, Milano, Italy).

[3] = test system: Bcl-2 and Bax protein levels; assay: Western blotting of Bcl-2 and Bax protein levels in A2058 cells; settings: A2058, 100 μM
Description: Mitochondria represent the primary source of ROS, as well the target of ROS action, and therefore, compound 7 could affect their functionality in melanoma cells. […] Proteins belonging to the B-cell lymphoma-2 (Bcl-2) family are involved in the modulation of the mitochondrial functionality. Therefore, we have evaluated the levels of the anti-apoptotic protein Bcl-2, as well as that of the pro-apoptotic Bcl-2-associated X protein (Bax), after incubation with 7 (Figure 10B). […] To further investigate the occurrence of a mitochondrial-mediated apoptosis induced by 7, the caspase-9 activity was assayed. […] The effect of compound 7 was investigated also in SAN cells and the overall results were similar to those observed in A2058 (Supplementary Figure S6).
A2058 cells were seeded into 6-well-plates (3 × 10^5 cells/plate) for 24 h at 37°C and then treated at different times with 100 μM compound 7 or 0.5% DMSO. After treatment, cells were harvested, washed with PBS and then lysed in ice-cold modified radio immunoprecipitation assay (RIPA) buffer (50 mM Tris-HCl, pH 7.4, 150 mM NaCl, 1% Nonidet P-40, 0.25% sodium deoxycholate, 1 mM Na3VO4 and 1 mM NaF), supplemented with protease inhibitors and incubated for 30 min on ice. The supernatant obtained after centrifugation at 12,000 rpm for 30 min at 4°C constituted the total protein extract. The protein concentration was determined by the method of Bradford, using bovine serum albumin (BSA) as standard. Equal amounts of total protein extracts were used for Western blot analysis. […] The filter was incubated with the specific primary antibody at 4°C overnight and then with the secondary antibody at room temperature for 1 h. Membranes were then analysed by an enhanced chemiluminescence reaction, using Super Signal West Pico kit (Pierce) according to manufacturer's instruction; signals were visualized by autoradiography.

[4] = test system: SAN cells; assay: Cell cycle analysis by PI flow cytometry, SAN cells; settings: 100 μM, 16 and 24 h
Description: As CDC25 phosphatases are key cell cycle regulators, the effect of 7 on cell cycle progression was investigated in detail. To this aim, asynchronously growing A2058 and SAN cells were treated at different times with 100 μM compound 7, and then cell cycle analysis was cytofluorimetrically monitored after propidium iodide (PI) incorporation. […] After 16-h incubation with […], cells were mainly and almost equally distributed in G0/G1 and G2/M phases (the ratio between them being 0.96), whereas the cellular population in the S phase was essentially undetectable. […] A similar general picture emerged from the effect of compound 7 on cell cycle progression of SAN cells (Supplementary Figure S3).
Cells were seeded into 6-well plates at 3 × 10^5 cells/well for 24 h at 37°C; after the addition of 100 μM 7 or 0.5% DMSO as a vehicle control, the incubation of treated cells continued for 16 or 24 h. After each treatment, cells were harvested with trypsin, centrifuged and the pellet was resuspended in phosphate-buffered saline (PBS). For cell cycle analysis, cells were fixed with 70% (v/v) cold ethanol and stored at −20°C for 1 h. […] After incubation at 4°C for 30 min, cells were analyzed with a FACScan flow cytometer (Becton Dickinson) for evaluating the distribution in cell cycle phases or the presence of nuclei with a DNA content lower than the diploid.

O=C(O)C1CCCCC1c1c2ccc(=O)cc-2oc2cc(O)ccc12 (stereo not shown) [Compound 7, 2-(6-hydroxy-3-oxo-3H-xanthen-9-yl)cyclohexanecarboxylic acid]
intracellular ROS level ([1]; A2058, 100 μM, significant after 4 h): time-dependent increase of the ROS level
increase of ROS level after apocynin pre-treatment ([1]; A2058, 0.5 mM apocynin 45 min, then 100 μM 7 for 4 h): did not prevent the increase of ROS level
increase of ROS level after NAC pre-treatment ([1]; A2058, 10 mM NAC 1 h, then 100 μM 7 for 4 h): prevented by the NAC treatment
cell growth rate ([2]; 48 h, MTT): significant reduction of the cell growth rate
cell growth rate ([2]; 72 h, MTT (data not shown)): significant reduction of cell growth rate
minimum concentration of inhibitor that caused an evident cytotoxic activity ([2]; A2058, 25, 50 or 100 μM tested, 48 h (Supplementary Figure S2)): 100 µM
Bcl-2/Bax ratio ([3]; 8 and 16 h): significant reduction
Bcl-2 protein level ([3]; 8 and 16 h): clear reduction of the Bcl-2 level after 8-h treatment
Bax protein level ([3]; 16 h): clear increase of Bax
cell distribution in the G2/M phase [4]: increase of cell distribution in the G2/M phase
